The text below walks through data of patent EP0414903A1, “NEW THIOPROLINE DERIVATIVE” (priority 1988, dated 1990).

Non-standard residues stand in square brackets, D forms with d. Residues, ends and D or L forms follow the SMILES beside them. *: point of attachment. Thz = O=C(O)[C@@H]1CSCN1; Cbz = O=C(OCc1ccccc1)*

One experiment has as its target T1, bovine brain PEP (Bos taurus, UniProt Q9XTA2).
T1 construct: from tissue; host or cells: bovine brain
T1 sequence (Q9XTA2 1-710): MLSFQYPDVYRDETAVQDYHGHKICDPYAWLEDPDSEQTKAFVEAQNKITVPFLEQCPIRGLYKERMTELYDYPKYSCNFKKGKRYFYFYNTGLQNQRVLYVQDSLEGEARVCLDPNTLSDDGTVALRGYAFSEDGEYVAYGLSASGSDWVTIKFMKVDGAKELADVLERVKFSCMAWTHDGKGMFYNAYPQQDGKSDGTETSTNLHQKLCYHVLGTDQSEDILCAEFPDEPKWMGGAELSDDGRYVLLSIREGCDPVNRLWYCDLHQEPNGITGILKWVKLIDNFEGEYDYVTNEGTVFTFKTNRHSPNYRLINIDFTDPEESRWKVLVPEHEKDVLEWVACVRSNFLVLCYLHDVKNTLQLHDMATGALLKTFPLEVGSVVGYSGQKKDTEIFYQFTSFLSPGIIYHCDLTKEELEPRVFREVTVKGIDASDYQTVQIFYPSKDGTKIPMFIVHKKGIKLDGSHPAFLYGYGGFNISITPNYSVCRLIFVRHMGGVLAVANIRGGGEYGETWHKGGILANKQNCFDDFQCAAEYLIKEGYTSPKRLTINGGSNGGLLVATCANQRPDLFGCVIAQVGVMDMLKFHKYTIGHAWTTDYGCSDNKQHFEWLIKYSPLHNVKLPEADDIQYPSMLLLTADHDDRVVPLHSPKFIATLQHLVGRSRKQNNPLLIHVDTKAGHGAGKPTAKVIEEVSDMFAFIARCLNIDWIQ
The experiment in a line: Inhibitory activity against proline endopeptidase (PEP), substrate Z-Gly-Pro-β-NA. Type of experiment: biochemical. As to conditions: pH 7.0, 37°C. How it is done:
The thioproline derivatives of the general formula (I) shown above as test compound were assayed for inhibitory activity against bovine brain PEP by the following test procedure using as substrate N-benzyloxycarbonyl-glycyl-proline-β-naphthylamide (Z-Gly-Pro-β-NA).
100 µl of PEP (about 0.14 U/ml) and 100µl of one of test compound solutions adjusted to different concentrations (0, 10⁻⁹ - 10⁻⁴M) were added to 0.7 ml of 20 mM Tris-HCl buffer (pH = 7.0) containing 10 mM EDTA and 10 mM 2-mercaptoethanol, and the mixture was preincubated at 37°C for 5 minutes. […] The reaction was […] using 25% trichloroacetic acid, and the reaction mixture was centrifuged at 3,000 r.p.m. for 10 minutes. To 0.5 ml of the supernatent was added 0.5 ml of 0.1% nitrous acid, and after 3 minutes 0.05% solution of N-(l-naphthyl)etnylenediamine dihydrochloride in ethanol was added thereto. The mixture was allowed to stand at 37°C for 25 minutes and then the absorbance at 570 nm was measured.
Enzyme Activity Unit = ΔOD x 0.42 x Dilution ratio (µmol/min/ml)

The test system of experiment [1] is scopolamine-induced amnesia. Put plainly: Step-down passive avoidance test (anti-amnestic activity, scopolamine-induced amnesia). Format: in vivo, rats. The following applies: scopolamine 0.5 mg/kg i.p., relative to scopolamine-treated group, retention trial 24 hours after acquisition. An excerpt:
A step-down passive avoidance test on rats was used as the method of assay for anti-amnestic activity to estimate the preventive effect of prolylendopeptidase inhibitors on scopolamine-induced amnesia. This method of assay involved application of electric shocks to animals upon their stepping down on a grid floor to see whether they have learned that such shocks can be avoided by staying on a platform. A passive avoidance test chamber used in this experiment was comprised of an electrifiable grid floor (20 cm in length and 22 cm in width) and a platform (20 cm in length, 15 cm in width and 5 cm in height) placed at the right back corner thereof.
5-Weeks-old male rats of Wister strain weighing 100-150 g (purchased from Japan Clea Laboratory) were used in the test.
Each test compound used in the doses indicated in Tables 1 - 4 was dissolved or suspended in 4% gum arabic-containing distilled water (1.0 ml) and administered p.o. one hour before the commencement of acquisition trial. In addition, scopolamine hydrobromide dissolved in saline (0.5 ml) was intraperitoneally administered in a dose of 0.5 mg/kg 30 minutes before the acquisition trial to prepare experimental animal models of amnesia.
In the acquisition trial, the rat was placed on the platform in the test chamber and, when the animal stepped down on the grid floor, the electric current of 5.0 mA was immediately sent to the grid floor continuously until the animal went up on the platform. If the rat having gone up on the platform stayed there for more than 30 seconds, the animal was regarded to have learned the situation and taken out of the test chamber. A total time of measurement in the acquisition trial was limited to 300 seconds as maximum, and the time elapsing until the rat learned the situation was measured. In order to avoid any significant difference in the rats, those which took more than 300 seconds for the learning were excluded from the experiment.
The retention trial was carried out 24 hours after the acquisition trial. In this trial, the rat was placed again on the platform in the test chamber, the time elapsing until the animal stepped down onto the grid floor (the step-down latency) was measured.
In each of these tables they are indicated as relative step-down latency, shown by each test compound-treated group in the retention trial, to step-down latency for scopolamine-treated group (i.e. test compound-treated group's step-down latency/scopolamine-treated group's step-down latency).

In the case of `COC(OC)[C@@H]1CSCN1C(=O)[C@@H]1CSCN1C(=O)OCc1ccccc1` [Example 1, Benzyloxycarbonyl-L-thioprolyl-L-thioprolinal dimethyl acetal], the IC50 (as a rule, the concentration at which inhibition is half-maximal) at bovine brain PEP came out at 10 µM. Further, the “Relative step-down latency in retention trial (mean±S.E.)” value (shortened to “Relative step-down latency”) in experiment [1] (Table 2, dose 0.008 mg/kg p.o.) stood at 0.9±0.1; in experiment [1] (Table 2, dose 0.04 mg/kg p.o.), 2.4±1.1; in experiment [1] (Table 2, dose 0.2 mg/kg p.o.) it was 2.5±1.5; in experiment [1] (Table 2, dose 1 mg/kg p.o.), 1.4±0.3; in experiment [1] (Table 2, dose 5 mg/kg p.o.) it was 1.1±0.4; in experiment [1] (Table 2, dose 25 mg/kg p.o.) it was 1.6±0.6.
`CCOC(OCC)[C@@H]1CSCN1C(=O)[C@@H]1CSCN1C(=O)OCc1ccccc1` [Example 2, Benzyloxycarbonyl-L-thioprolyl-L-thioprolinal diethyl acetal]: at bovine brain PEP, the half-inhibitory concentration (IC50) came out at 250 µM. For the same compound, the “Relative step-down latency” value in experiment [1] (Table 2, dose 0.008 mg/kg p.o.) was 1.5±0.6; in experiment [1] (Table 2, dose 0.04 mg/kg p.o.), 2.7±1.4; in experiment [1] (Table 2, dose 0.2 mg/kg p.o.), 1.7±0.9; in experiment [1] (Table 2, dose 1 mg/kg p.o.), 2.3±1.2; in experiment [1] (Table 2, dose 5 mg/kg p.o.) it was 1.5±0.6; in experiment [1] (Table 2, dose 25 mg/kg p.o.), 1.3±0.7.
`O=C[C@@H]1CSCN1C(=O)[C@@H]1CSCN1C(=O)OCc1ccccc1` [ZTT, Benzyloxycarbonyl-L-thioprolyl-L-thioprolinal, reference compound] (Cbz-[Thz]-[Thz]-aldehyde): the “Relative step-down latency” value in experiment [1] (Table 2, dose 0.008 mg/kg p.o.) worked out at 1.0±0.3; in experiment [1] (Table 2, dose 0.04 mg/kg p.o.), 3.0±1.2; in experiment [1] (Table 2, dose 0.2 mg/kg p.o.), 2.6±0.9; in experiment [1] (Table 2, dose 1 mg/kg p.o.), 1.6±0.8; in experiment [1] (Table 2, dose 5 mg/kg p.o.), 1.0±0.2; in experiment [1] (Table 2, dose 25 mg/kg p.o.), 1.4±0.9.
In the case of `COc1ccc(C(=O)N2CCCC2=O)cc1` [aniracetam, reference compound], the “Relative step-down latency” value in experiment [1] (Table 3, dose 12.5 mg/kg p.o.) stood at 1.1±0.4; in experiment [1] (Table 3, dose 25 mg/kg p.o.) it was 1.6±0.6; in experiment [1] (Table 3, dose 50 mg/kg p.o.), 2.3±0.6; in experiment [1] (Table 3, dose 100 mg/kg p.o.), 0.7±0.3.
